# Entries after “also recorded” stand apart in the source; their conditions may differ.
# Key:
# Huh7 D12 = experiment: Antiproliferative assay, Huh7 D12; type: cell-based, human
# Description: (§1) The potential antiproliferative activity of these novel 3-(N-phenylmethyliden)amino-4-imino-3,5-dihydro-4H-chromeno[2,3-d]pyrimidine 10(a-i) and 10-(N-phenylmethyliden)amino-11-imino-11H-naphto[1′,2′:5,6]pyrano[2,3-d]pyrimidine 10(j-l) was evaluated in a panel of eight tumoral cell lines and in diploid skin fibroblasts used as normal cell lines for control. For these antitumor assays, chosen cell lines represent diverse types of human cancer, which are, respectively, human hepatocellular carcinoma (Huh7 D12), human colon adenocarcinoma (Caco2), human breast adenocarcinoma (MDA-MB231), MDA-MB468 for human breast carcinoma which correspond to the Triple Negative Breast Cancer (TNBC), human colon carcinoma (HCT116), PC3 as cell line initiated from bone metastasis of grade IV prostatic adenocarcinoma from a person, MCF7 as breast cancer line isolated from a person and PANC1, as human pancreatic cancer cell line. The potential antiproliferative activity was preliminarily evaluated in vitro at a 25 μM single dose.
# (§2) The IC50 was calculated from the full dose-response curve and used as a parameter for the antiproliferative activity of the new compounds.
# (§3) Skin diploid fibroblastic cells were provided by BIOPREDIC International Company (Rennes, France). Huh-7D12 (Ref ECACC: 01042712), Caco2 (Ref ECACC: 86010202), MDA-MB-231 (Ref ECACC: 92020424), MDA-MB-468, HCT-116 (Ref ECACC: 91091005), PC3 (Ref ECACC: 90112714), and MCF7 cell lines were obtained from the ECACC collection. PANC1 cell lines, a generous gift of LBAI Inserm 1227 (Brest, France). Cells were grown according to ECACC recommendations in DMEM for Huh-D12, MDA-MB-231, MDA-MB-468 and fibroblast, in EMEM for Caco2, in McCoy’s for HCT-116 and RPMI for PC3 at 37 °C and 5% CO2. All culture media with 10% of FBS, 1% of penicillin-streptomycin and 2 mM glutamine.
# (§4) Chemicals were solubilized in DMSO at a concentration of 10 mM (stock solution) and diluted in a culture medium to the desired final concentrations. […] The toxicity test of the chemicals on these cells was as follows: 2 × 10^3 cells for HCT-116 cells or 4 × 10^3 for the other cells were seeded in 96-multi-well plates in triplicate and left for 24 h for attachment, spreading and growing. Then, cells were exposed for 48 h to increasing concentrations of chemicals, ranging from 0.1 μM to 25 μM, in a final volume of 120 μL of culture medium. After 48 h of treatment, cells were washed in PBS and fixed in a cooled 90% ethanol/5% acetic acid solution for 20 min. The nuclei were stained with Hoechst 3342 (B2261 Merck Sigma-Aldrich) and counted. Image acquisition and analysis were performed using automated imaging analysis with a Cellomics Arrayscan VTI/HCS Reader (Thermo/Scientific, Waltham, MA, USA). The survival percentages were calculated as the percentage of cell number after chemical treatment over cell number after DMSO treatment. The IC50 was graphically determined.
# [1] = Antiproliferative assay, Caco2; type: cell-based, human; conditions: human, Caco-2; SI = IC50 fibroblasts/IC50 on Caco2; read-out: Selectivity Index (SI) Caco2
# Description: as §1, §2, §3, §4
# Caco2 = experiment: Antiproliferative assay, Caco2; type: cell-based, human; conditions: Homo sapiens, Caco-2; 48 h incubation; average of three assays, standard error ± 0.5 μM
# Description: as §1, §2, §3, §4
# MDA MB231 = experiment: Antiproliferative assay, MDA MB231; type: cell-based, human
# Description: as §1, §2, §3, §4
# MDA MB468 = experiment: Antiproliferative assay, MDA MB468; type: cell-based, human
# Description: as §1, §2, §3, §4
# HCT 116 = experiment: Antiproliferative assay, HCT 116; type: cell-based, human
# Description: as §1, §2, §3, §4
# PC3 = experiment: Antiproliferative assay, PC3; type: cell-based, human
# Description: as §1, §2, §3, §4
# MCF7 = experiment: Antiproliferative assay, MCF7; type: cell-based, human
# Description: as §1, §2, §3, §4
# Fibroblasts = experiment: Antiproliferative assay, diploid skin fibroblasts (normal cells); type: cell-based; conditions: Fibroblast; 48 h incubation; average of three assays, standard error ± 0.5 μM
# Description: as §1, §2, §3, §4
# [2] = tested on: Store-Operated Ca^+2 Entry (SOCE); experiment: SOCE and Ca2+ release assay in B cell line (PLP cell line); type: cell-based; conditions: same protocol
# Description: Thapsigargin (TG), an inhibitor of endoplasmic reticulum Ca^+2-ATPase, is used to deplete intracellular calcium stores in a Ca^+2-free solution and therefore activate SOCE. […] In the context of a preliminary exploration of the functional effects of our molecules of interest and in the absence of a significant inhibition at a low concentration of compound 10h on the reference cell line we used (HEK293) no further exploration of the modulatory effect of this compound on cancer cell lines was initiated.
# [3] = tested on: zebrafish Danio rerio embryos; experiment: Angiogenesis of vessels in mCherry transgenic zebrafish embryos; type: in vivo
# Source text: Another interest of zebrafish Danio rerio is the possibility to deeply evaluate the effects of angiogenic compounds. In our model, the formation of most vessels is complete, the circulation is present, and the heart is beating after 28 hpf of development. Angiogenesis begins in the somites and in the anterior portion of the embryos. Many zebrafish blood vessels form by angiogenic sprouting and appear to require the same proteins required for blood vessel growth in mammals. By using the mCherry line transgenic zebrafish, it is possible to analyze the direct effect of a compound on the angiogenesis of dorsal vessels. Zebrafish embryos can survive up to a week without an intact circulatory system because defective vessel formation has no immediate lethal effect.
# These experiments were performed in four technical replicates.
# [4] = tested on: zebrafish Danio rerio embryos; experiment: Zebrafish embryo toxicity assay (Zebratox, FET)
# Description: Fertilized eggs at 24–48 h post-fertilization (hpf) were selected and transferred to a 96-well plate (1 embryo/well). […] DMSO (0.6%) was used as vehicle control for the test compounds. The exposure duration continued up to 72 hpf because it is the endpoint of embryonic development [41]. The dead embryos were eliminated, and the fertilized eggs were imaged at 0, 24, 48 and 72 hpf.
# Eggs were collected 2 h post-fertilization (hpf) and kept in glass Petri dishes containing water for subsequent examination under a binocular microscope to confirm fertilization. […] Chemical treatments were performed by adding DMSO alone (negative control), or test molecule. These experiments were performed in four technical replicates.
# The experiments were performed using a Zeiss inverted fluorescent microscope (Observer Z1). The zebrafish toxicological test (Zebratox) was realized as follows: the 24 h post-fertilization embryos were arrayed by hand with one embryo per well in black-walled 96-well microplates for fluorescence assays (Perkin Elmer, Waltham, MA, USA). The embryos were treated before hatching from 0 to 72 h post-fertilization. The 20 mM DMSO stock chemicals were diluted in fish water and added to the wells at final concentrations from 0.0 2µM to 5 μM. The negative control (0.25% DMSO) was added to each replicate plate. The experiments were realized in triplicate in three independent plates. […] The zebrafish fertilized eggs were provided by the ImPACcell-Biosit Zebrafish facilities (Rennes, France).
# [5] = 48 and 72 hpf treatment, up to 5 μM
structure (smiles),measurement,setting,value
"COc1cccc2c1Oc1ncn(/N=C/c3ccccc3O)c(=N)c1C2 [10h, (3E) 3-N-(2-Hydroxyphenylmethylidene)amino-4-imino-9-methoxy-3,5-dihydro-4H-chromeno[2,3-d]pyrimidine]",IC50,"Huh7 D12; Homo sapiens, Huh-7D12, 48 h incubation, average of three assays, standard error ± 0.5 μM",230 nM
same,Selectivity Index (SI) Huh7 D12,Huh7 D12; SI = IC50 fibroblasts/IC50 on Huh7 D12,> 108.7
same,selectivity ratio at 48 h,[1],> 83.3
same,IC50,Caco2,300 nM
same,IC50,"MDA MB231; Homo sapiens, MDA-MB-231, 48 h incubation, average of three assays, standard error ± 0.5 μM",300 nM
same,Selectivity Index (SI) MDA MB231,MDA MB231; SI = IC50 fibroblasts/IC50 on MDA MB231,> 83.3
same,IC50,"MDA MB468; Homo sapiens, MDA-MB-468, 48 h incubation, average of three assays, standard error ± 0.5 μM",240 nM
same,Selectivity Index (SI) MDA MB468,MDA MB468; SI = IC50 fibroblasts/IC50 on MDA MB468,> 104.2
same,IC50,"HCT 116; Homo sapiens, HCT-116, 48 h incubation, average of three assays, standard error ± 0.5 μM",240 nM
same,Selectivity Index (SI) HCT 116,HCT 116; SI = IC50 fibroblasts/IC50 on HCT 116,> 104.2
same,IC50,"PC3; Homo sapiens, PC-3, 48 h incubation, average of three assays, standard error ± 0.5 μM",240 nM
same,Selectivity Index (SI) PC3,PC3; SI = IC50 fibroblasts/IC50 on PC3,> 104.2
same,IC50,"MCF7; Homo sapiens, MCF7, 48 h incubation, average of three assays, standard error ± 0.5 μM",270 nM
same,Selectivity Index (SI) MCF7,MCF7; SI = IC50 fibroblasts/IC50 on MCF7,> 92.6
same,IC50,Fibroblasts,> 25000 nM
same,inhibitory effects on SOCE and Ca2+ release,[2],without detecting any inhibitory effects on SOCE and Ca^2+ release; also recorded: no inhibitory effects on SOCE and Ca^+2 release
same,effect on vessel angiogenesis,[3]; 5 μM dose at 72 hpf,no angiogenic effect; also recorded: cannot observe an anti-angiogenic effect; also recorded: without delay in vessel angiogenesis
same,effect on vessel angiogenesis,[3]; [5],without delay in vessel angiogenesis
same,hatching of the embryos,[4]; 5 μM dose at 72 hpf,complete hatching
same,toxic effect on zebrafish embryos,[4]; 5 μM dose at 72 hpf,no toxic effect; also recorded: without toxic effect
same,hatching of the embryos,[4]; [5],complete hatching
same,toxic effect on zebrafish embryos,[4]; [5],no toxic effect

# From PMC11054303, “Design and Synthesis of Novel N-Benzylidene Derivatives of 3-Amino-4-imino-3,5-dihydro-4H-chromeno[2,3-d]pyrimidine under Microwave, In Silico ADME Predictions, In Vitro Antitumoral Activities and In Vivo Toxicity” (Pharmaceuticals, 2024)
